Laboratory results taken from patent publication US9115101B2 (Genentech, Inc., priority 2012, dated 2015).

target: T1, RORc ligand binding domain (Homo sapiens, UniProt P51449); experiment: In Vitro RORc Ligand Binding Assay (25-[3H]hydroxycholesterol radioligand filtration); details: In Vitro RORc Ligand Binding Assay; Table 4; read-out: RORc IC50
T1 construct: host or cells: E. coli
T1 sequence (P51449 269-508 limits assumed): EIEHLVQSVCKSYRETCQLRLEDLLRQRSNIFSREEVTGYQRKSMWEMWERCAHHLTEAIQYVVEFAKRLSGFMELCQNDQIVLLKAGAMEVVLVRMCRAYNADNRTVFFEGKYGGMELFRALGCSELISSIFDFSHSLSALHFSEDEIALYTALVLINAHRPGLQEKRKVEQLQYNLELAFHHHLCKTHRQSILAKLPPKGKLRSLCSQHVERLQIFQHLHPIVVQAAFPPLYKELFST

| IC50 [nM] | SMILES |
| --- | --- |
| 168 | C[C@@H]1CCC(c2ccccc2)S(=O)(=O)N1Cc1ccc(OC2CCN(S(C)(=O)=O)CC2)nc1 (single isomer, unassigned) [Example 50] |
| 717 | CC(=O)N1CCN(c2ccc(CN3C[C@@H](C)OCC(c4ccccc4)S3(=O)=O)c(F)c2)CC1 (single isomer, unassigned) [Example 31] |
| 49 | C[C@H]1CCC(c2ccccc2)S(=O)(=O)N1Cc1ccc(N[C@H]2CC[C@H](C#N)CC2)cc1F (single isomer, unassigned) [Example 111] |
| 44 | C[C@H]1CCC(c2ccccc2)S(=O)(=O)N1Cc1ccc(N2CCC3(CC2)COC3)cc1F (single isomer, unassigned) [Example 99] |
| 2670 | C[C@H]1CCC(c2ccccc2)S(=O)(=O)N1Cc1ccc(C(=O)N2CCN(C(=O)C3CC3)CC2)cc1 (stereo partly drawn) [Example 288, (4-Cyclopropane carbonyl-piperazin-1-yl)-[4-((3S)-methyl-1,1-dioxo-6-phenyl-[1,2]thiazinan-2-ylmethyl)-phenyl]-methanone] |
| 1360 | CC(=O)N1CCN(c2ccc(CN3[C@@H](C)CCC(c4ccccc4)S3(=O)=O)c(F)c2)C[C@H]1C(=O)O (stereo partly drawn) [Example 377, (S)-1-Acetyl-4-[3-fluoro-4-((3S)-methyl-1,1-dioxo-6-phenyl-[1,2]thiazinan-2-ylmethyl)-phenyl]-piperazine-2-carboxylic acid] |
| 9 | C[C@H]1CCC(c2ccccc2)S(=O)(=O)N1Cc1ccc(NC2CCN(S(C)(=O)=O)CC2)cc1F (single isomer, unassigned) [Example 167] |
| 254 | C[C@H](O)C(=O)N1CCCN(c2ccc(CN3[C@@H](C)CCC(c4ccccc4)S3(=O)=O)c(F)c2)CC1 (single isomer, unassigned) [Example 91] |
| 201 | CC(=O)N1CCN(c2ccc(CN3[C@@H](C)CCC(c4ccccc4)S3(=O)=O)cc2C#N)CC1 (single isomer, unassigned) [Example 114] |
| 926 | N#CCC(=O)N1CCN(c2ccc(CN3CCCCC(c4ccccc4)S3(=O)=O)cc2)CC1 (single isomer, unassigned) [Example 312, 3-{4-[4-(1,1-Dioxo-7-phenyl-[1,2]thiazepan-2-ylmethyl)-phenyl]-piperazin-1-yl}-3-oxo-propionitrile] |
| 5460 | C[C@H]1CCC(c2ccccc2)S(=O)(=O)N1Cc1ccc(C(=O)NC2CN(C(N)=O)C2)cc1 (stereo partly drawn) [Example 390, 3-[4-((3S)-Methyl-1,1-dioxo-6-phenyl-[1,2]thiazinan-2-ylmethyl)-benzoylamino]-azetidine-1-carboxylic acid amide] |
| 73 | CC[C@H]1CCC(c2ccccc2)S(=O)(=O)N1Cc1ccc(N2CCN(C(C)=O)CC2)cc1F (single isomer, unassigned) [Example 195] |
| 3 | CC(=O)N1CCN(c2ccc(CN3[C@@H](C)CCC(c4ccccc4F)S3(=O)=O)c(F)c2)CC1 (single isomer, unassigned) [Example 117] |

Second part, the compound before the results:

| SMILES | IC50 [nM] |
| --- | --- |
| CC(=O)N1CCN(c2ccc(CN3[C@@H](C)CCC(c4ccccc4)S3(=O)=O)c(F)c2)C[C@@H]1C(=O)N(C)C (stereo partly drawn) [Example 384, (R)-1-Acetyl-4-[3-fluoro-4-((3S)-methyl-1,1-dioxo-6-phenyl-[1,2]thiazinan-2-ylmethyl)-phenyl]-piperazine-2-carboxylic acid dimethylamide] | 1720 |
| C[C@H](O)C(=O)N1CCN(c2ccc(CN3[C@@H](C)CCC(c4ccccc4)S3(=O)=O)c(F)c2)CC1 (single isomer, unassigned) [Example 78] | 29 |
| C[C@H]1CCC(c2ccccc2)S(=O)(=O)N1Cc1ccc(N2CC(C3CCOCC3)C2)cc1F (single isomer, unassigned) [Example 106] | 20 |
| CS(=O)(=O)N1CCC(Nc2ccc(CN3CC4(CC4)CC(c4ccccc4)S3(=O)=O)c(F)c2)CC1 (single isomer, unassigned) [Example 253, 5-(2-fluoro-4-((1-(methylsulfonyl)piperidin-4-yl)amino)benzyl)-7-phenyl-6-thia-5-azaspiro[2.5]octane 6,6-dioxide] | 7 |
| CC(=O)N1CCN(c2ccc(CN3[C@H](C)CC(c4ccccc4)S3(=O)=O)c(F)c2)CC1 (single isomer, unassigned) [Example 65] | 2300 |
| O=S1(=O)C(c2ccccc2)CCCCN1Cc1ccc(N2CCC(n3cnnc3)CC2)cc1F (single isomer, unassigned) [Example 325, 2-[2-Fluoro-4-(4-[1,2,4]triazol-4-yl-piperidin-1-yl)-benzyl]-7-phenyl-[1,2]thiazepane 1,1-dioxide] | 10 |
| COc1ccccc1C1CC[C@H](C)N(Cc2ccc(N3CCN(C(C)=O)CC3)cc2F)S1(=O)=O (single isomer, unassigned) [Example 224] | 62 |
| C[C@H]1CCC(c2ccccc2)S(=O)(=O)N1Cc1ccc(N2CCC(C#N)CC2)cc1F (single isomer, unassigned) [Example 87] | 200 |
| CC(=O)N1CCN(c2ccc(CN3[C@@H](C)CCC(c4ccccc4)S3(=O)=O)c(F)c2)CC1 (single isomer, unassigned) [Example 18] | 47 |
| CC(=O)N1CCN(c2ccc(CN3[C@@H](C)CCC(c4ccccc4)S3(=O)=O)cn2)CC1 (single isomer, unassigned) [Example 42] | 837 |
| C[C@H]1CCC(c2ccccc2)S(=O)(=O)N1Cc1ccc(N2CCCN(C(=O)CC#N)CC2)cc1F (single isomer, unassigned) [Example 83] | 213 |
| C[C@H]1CCC(c2ccccc2)S(=O)(=O)N1Cc1ccc(N[C@H]2CC[C@@H](C#N)CC2)cc1F (single isomer, unassigned) [Example 97] | 40 |
| C[C@H]1CCC(c2ccccc2)S(=O)(=O)N1Cc1ccc(C(=O)N[C@@H]2CCN(C(N)=O)C2)cc1 (stereo partly drawn) [Example 391, (R)-3-[4-((3S)-Methyl-1,1-dioxo-6-phenyl-[1,2]thiazinan-2-ylmethyl)-benzoylamino]-pyrrolidine-1-carboxylic acid amide] | 3430 |
| CC(=O)N1CCN(c2ccc(CN3[C@@H](C)CCC(c4ccccc4F)S3(=O)=O)c(F)c2)CC1 (single isomer, unassigned) [Example 116] | 37 |
| CON(C)C(=O)C1CCN(c2ccc(CN3[C@@H](C)CCC(c4ccccc4)S3(=O)=O)c(F)c2)CC1 (single isomer, unassigned) [Example 147] | 1780 |

same assay, conditions: read-out: RORc IC50

| IC50 [nM] | SMILES |
| --- | --- |
| 1010 | C[C@H]1CCC(c2ccccc2)S(=O)(=O)N1Cc1ccc(N2CC3(CC(n4cnnc4)C3)C2)cc1F (stereo partly drawn) [Example 425, 2-[3-Fluoro-4-((3S)-methyl-1,1-dioxo-6-phenyl-[1,2]thiazinan-2-ylmethyl)-phenyl]-6-[1,2,4]triazol-4-yl-2-aza-spiro[3.3]heptane] |
| 228 | CC(=O)N1CCN(c2ccc(CN3[C@@H](C)CCC(c4ccccc4)S3(=O)=O)c(F)c2)[C@@H](C(N)=O)C1 (stereo partly drawn) [Example 433, (R)-4-Acetyl-1-[3-fluoro-4-((3S)-methyl-1,1-dioxo-6-phenyl-[1,2]thiazinan-2-ylmethyl)-phenyl]-piperazine-2-carboxylic acid amide] |
| 74 | C[C@H]1CCC(c2ccccc2)S(=O)(=O)N1Cc1ccc(NC(=O)C2CCN(S(C)(=O)=O)CC2)cc1F (stereo partly drawn) [Example 459, 1-Methanesulfonyl-piperidine-4-carboxylic acid [3-fluoro-4-((3S)-methyl-1,1-dioxo-6-phenyl-[1,2]thiazinan-2-ylmethyl)-phenyl]-amide] |
